From patent publication US20070161652A1, “Fungicidal mixtures” (BASF Aktiengesellschaft, priority 2004, published 2007)

Tested on: Plasmopara viticola
Test: activity against peronospora of grapevines caused by Plasmopara viticola (protective spray test on potted vines)
Format: in vivo, Plasmopara viticola on vines of the cultivar "Riesling"
Settings: individual active compound, untreated control 92% infection
Description: The active compounds, separately or jointly, were prepared as a stock solution comprising 0.25% by weight of active compound in acetone or DMSO. 1% by weight of the emulsifier Uniperol® EL (wetting agent having emulsifying and dispersant action based on ethoxylated alkylphenols) was added to this solution, and the mixture was diluted with water to the desired concentration.
Use example—activity against peronospora of grapevines caused by Plasmopara viticola Leaves of potted vines of the cultivar “Riesling” were sprayed to runoff point with an aqueous suspension having the concentration of active compound stated below. The next day, the undersides of the leaves were inoculated with an aqueous zoospore suspension of Plasmopara viticola. The grapevines were then initially placed in a water-vapor-saturated chamber at 24° C. for 48 hours and then in a greenhouse at 20-30° C. for 5 days. After this period of time, the plants were again placed in a humid chamber for 16 hours to promote sporangiophore eruption. The extent of the development of the disease on the undersides of the leaves was then determined visually.
The visually determined percentages of infected leaf areas were converted into efficacies in % of the untreated control:
The efficacy (E) is calculated as follows using Abbot's formula: E=(1−[…] )·100 α corresponds to the fungicidal infection of the treated plants in % and β corresponds to the fungicidal infection of the untreated (control) plants in % An efficacy of 0 means that the infection level of the treated plants corresponds to that of the untreated control plants; an efficacy of 100 means that the treated plants were not infected.
The expected efficacies of mixtures of active compounds were determined using Colby's formula (Colby, S. R. “Calculating synergistic and antagonistic responses of herbicide combinations”, Weeds, 15, 20-22, 1967) and compared with the observed efficacies.
Colby's formula: E=x+y−x·y/100
E expected efficacy, expressed in % of the untreated control, when using the mixture of the active compounds A and B at the concentrations a and b x efficacy, expressed in % of the untreated control, when using the active compound A at the concentration a y efficacy, expressed in % of the untreated control, when using the active compound B at the concentration b

| Compound | Efficacy in % of the untreated control (16 ppm in the spray liquor) [%] | Efficacy in % of the untreated control (4 ppm in the spray liquor) [%] | Efficacy in % of the untreated control (63 ppm in the spray liquor) [%] |
| --- | --- | --- | --- |
| CC1CCN(c2c(-c3c(F)cc(F)cc3F)c(Cl)nc3ncnn23)CC1 [compound I, 5-chloro-7-(4-methylpiperidin-1-yl)-6-(2,4,6-trifluorophenyl)-[1,2,4]triazolo[1,5-a]pyrimidine] | 56 | – | – |
| OC(c1ccc(Cl)cc1)(c1cncnc1)c1ccccc1Cl (stereo not shown) [compound II, (4-chlorophenyl)(2-chlorophenyl)pyrimidin-5-ylmethanol] | 2 | 2 | 2 |
